This is an account of results in ChEMBL document CHEMBL3774390, “Azide-enolate 1,3-dipolar cycloaddition in the synthesis of novel triazole-based miconazole analogues as promising antifungal agents” (2016).

In brackets after ≈: the same amount, converted by molar mass.

Assay type in all cases: functional
In one test the test system is Candida albicans. Description: Antifungal activity against Candida albicans ATCC 10231 by M27-A3 protocol-based broth microdilution method.
A further test concerns Mucor hiemalis. Description: Antifungal activity against Mucor hiemalis ATCC 8690 by M38-A protocol-based microdilution method.
Another test concerns Cyberlindnera jadinii. Description: Antifungal activity against Candida utilis ATCC 9226 by M27-A3 protocol-based broth microdilution method. Particulars: Williopsis jadinii. Background: Broth dilution looks for growth in wells or tubes with falling amounts of substance.
The test system of a further test is Rhizopus arrhizus. Description: Antifungal activity against Rhizopus oryzae ATCC 10329 by M38-A protocol-based microdilution method.
The next test relates to Candida tropicalis. Description: Antifungal activity against Candida tropicalis ATCC 13803 by M27-A3 protocol-based broth microdilution method.
A further test relates to Aspergillus fumigatus. The experiment in a line: Antifungal activity against Aspergillus fumigatus ATCC 16907 by M38-A protocol-based broth microdilution method.
Test [1] is described as follows: Antifungal activity against Trichosporon cutaneum ATCC 28592 by M38-A protocol-based microdilution method. Particulars: Cutaneotrichosporon cutaneum.

On to `CSc1ccc(-c2cnnn2C(Cn2ccnc2)c2ccc(Cl)cc2Cl)cc1` (stereo unspecified), for which the MIC stood at 4 µg/mL (≈ 9.29 µM) against Candida albicans; 16 µg/mL (≈ 37.2 µM) with Mucor hiemalis; 16 µg/mL (≈ 37.2 µM) against Cyberlindnera jadinii; 16 µg/mL (≈ 37.2 µM) with Rhizopus arrhizus; 1 µg/mL (≈ 2.32 µM) with Candida tropicalis; 16 µg/mL (≈ 37.2 µM) in the test with Aspergillus fumigatus. This compound also showed a minimal inhibitory concentration (MIC) in test [1] of 16 µg/mL (≈ 37.2 µM).
For the compound `CCC(C)n1ncn(-c2ccc(N3CCN(c4ccc(OCC5COC(Cn6cncn6)(c6ccc(Cl)cc6Cl)O5)cc4)CC3)cc2)c1=O` (stereo unspecified) [ITRACONAZOLE], the MIC with Candida albicans was 0.03 µg/mL (≈ 0.0425 µM); in the test on Mucor hiemalis it was 1 µg/mL (≈ 1.42 µM); against Cyberlindnera jadinii it was 0.06 µg/mL (≈ 0.085 µM); against Rhizopus arrhizus, 0.5 µg/mL (≈ 0.709 µM); in the test with Candida tropicalis it was 0.03 µg/mL (≈ 0.0425 µM); against Aspergillus fumigatus, 0.25 µg/mL (≈ 0.354 µM). The compound also had a minimal inhibitory concentration (MIC) in test [1] of 1 µg/mL (≈ 1.42 µM).
For `CCCCCc1c(S(=O)(=O)c2ccccc2)nnn1C(Cn1ccnc1)c1ccc(Cl)cc1Cl` (stereo unspecified), the MIC in the test on Candida albicans was 0.06 µg/mL (≈ 0.116 µM); against Mucor hiemalis, 0.25 µg/mL (≈ 0.482 µM); in the test on Cyberlindnera jadinii, 0.25 µg/mL (≈ 0.482 µM); against Rhizopus arrhizus, 0.5 µg/mL (≈ 0.964 µM); against Candida tropicalis, 0.06 µg/mL (≈ 0.116 µM); with Aspergillus fumigatus it was 2 µg/mL (≈ 3.86 µM). For the same compound, 0.12 µg/mL (≈ 0.231 µM) was the least that counted as inhibitory in test [1] (MIC).
As for `CC(=O)c1nnn(C(Cn2ccnc2)c2ccc(Cl)cc2Cl)c1C` (stereo unspecified), the minimal inhibitory concentration (MIC) with Candida albicans stood at 16 µg/mL (≈ 43.9 µM); against Mucor hiemalis, 16 µg/mL (≈ 43.9 µM); in the test with Cyberlindnera jadinii, 16 µg/mL (≈ 43.9 µM); in the test with Rhizopus arrhizus, 8 µg/mL (≈ 22 µM); with Candida tropicalis, 16 µg/mL (≈ 43.9 µM); against Aspergillus fumigatus it was 16 µg/mL (≈ 43.9 µM). Besides, it took 16 µg/mL (≈ 43.9 µM) to inhibit growth in test [1] (MIC).
With `O=C(c1ccccc1)c1nnn(C(Cn2ccnc2)c2ccc(Cl)cc2Cl)c1-c1ccccc1` (stereo unspecified), the MIC worked out at 0.03 µg/mL (≈ 0.0614 µM) with Candida albicans; 16 µg/mL (≈ 32.8 µM) with Mucor hiemalis; 16 µg/mL (≈ 32.8 µM) in the test on Cyberlindnera jadinii; 8 µg/mL (≈ 16.4 µM) in the test on Rhizopus arrhizus; 0.06 µg/mL (≈ 0.123 µM) with Candida tropicalis; 16 µg/mL (≈ 32.8 µM) against Aspergillus fumigatus. The minimal inhibitory concentration (MIC) in test [1] amounted to 16 µg/mL (≈ 32.8 µM).
Take `N#Cc1nnn(C(Cn2ccnc2)c2ccc(Cl)cc2Cl)c1-c1ccccc1` (stereo unspecified): the MIC against Candida albicans, with Mucor hiemalis, against Cyberlindnera jadinii, against Rhizopus arrhizus, against Candida tropicalis and in the test on Aspergillus fumigatus was 16 µg/mL (≈ 39.1 µM) throughout. In test [1], this compound showed an MIC of 16 µg/mL (≈ 39.1 µM).
`Clc1ccc(C(Cn2ccnc2)n2nncc2C2CCCCC2)c(Cl)c1` (stereo unspecified): the MIC against Candida albicans amounted to 16 µg/mL (≈ 41 µM); in the test with Mucor hiemalis it was 0.12 µg/mL (≈ 0.307 µM); with Cyberlindnera jadinii it was 16 µg/mL (≈ 41 µM); against Rhizopus arrhizus, 2 µg/mL (≈ 5.12 µM); in the test with Candida tropicalis, 8 µg/mL (≈ 20.5 µM); in the test on Aspergillus fumigatus, 16 µg/mL (≈ 41 µM). This compound also registered an MIC in test [1] of 16 µg/mL (≈ 41 µM).
As for `CCCCC(C)(C)c1cnnn1C(Cn1ccnc1)c1ccc(Cl)cc1Cl` (stereo unspecified), the MIC in the test on Candida albicans amounted to 0.03 µg/mL (≈ 0.0738 µM); in the test with Mucor hiemalis it was 16 µg/mL (≈ 39.4 µM); in the test with Cyberlindnera jadinii, 2 µg/mL (≈ 4.92 µM); in the test with Rhizopus arrhizus it was 8 µg/mL (≈ 19.7 µM); in the test with Candida tropicalis, 0.03 µg/mL (≈ 0.0738 µM); in the test on Aspergillus fumigatus, 0.5 µg/mL (≈ 1.23 µM). The same compound gave a minimal inhibitory concentration (MIC) in test [1] of 8 µg/mL (≈ 19.7 µM).

One may read the MIC as the lowest concentration found to suppress growth.
